The source of these data is publication PMC12133982, “Predominant T-cell epitopes of SARS-CoV-2 restricted by multiple prevalent HLA-B and HLA-C allotypes in Northeast Asia” (Frontiers in Immunology, 2025).

Peptide text beside a SMILES is read from it.

In one assay the target is HLA-B4601 (Homo sapiens, UniProt P01889, A329T/A93R/C349S/D201E/E100V/E187L/E204Q/E69M/E70A/I90K/K202T/N87E/R155S/R180W/S121R/S35A/S48A/V306I/V36M/Y140S). Kind of assay: Competitive peptide binding assay, CIR-B4601. To be noted: HMy2.CIR-B4601 cells, reference Cy5-[…], class from inhibition at 5 and 15 μM, flow cytometry MFI; read-out: Binding affinity with HLA-B4601. Here is the method:
(§1) Then, competitive peptide binding assays were performed.

Another assay deals with HLA-B5801 (Homo sapiens, UniProt P01889, A329T/C349S/D201E/D98Y/E176V/E187L/E204Q/E69T/G107R/I218V/I90N/K202T/L105A/L119I/N104I/N87E/Q89R/Q94S/R106L/R155S/R180L/R86G/S101N/S121R/S35A/S48A/T118I/V127L/V306I/V36M/Y140S/Y91M). Kind of assay: Competitive peptide binding assay, CIR-B5801. To be noted: HMy2.CIR-B5801 cells, reference Cy5-[…], class from inhibition at 5 and 15 μM, flow cytometry MFI; read-out: Binding affinity with HLA-B5801. Here is the method: as §1

In another assay the target is HLA-B1502 (Homo sapiens, UniProt P01889, A329T/A93T/A95T/C349S/D201E/D98Y/E187L/E204Q/E69M/E70A/H137Y/K202T/L119I/Q94N/R155S/R180L/S121R/S35A/S48A/T118I/V306I/V36M/Y140S/Y91S). Kind of assay: Competitive peptide binding assay, CIR-B1502. Conditions: HMy2.CIR-B1502 cells, reference Cy5-[…], class from inhibition at 5 and 15 μM, flow cytometry MFI; read-out: Binding affinity with HLA-B1502. Here is the method: as §1

Another assay has as its target HLA-B5101 (Homo sapiens, UniProt P01889, A329T/A93T/A95T/C349S/D138N/D201E/D98Y/E187L/E204Q/E69T/G107R/I218V/K202T/L105A/L119W/N104I/Q94N/R106L/R155S/R180L/S101N/S121T/S35A/S48A/V306I/V36M/Y195H/Y91F). Kind of assay: Competitive peptide binding assay, CIR-B5101. Conditions: HMy2.CIR-B5101 cells, reference Cy5-[…], class from inhibition at 5 and 15 μM, flow cytometry MFI; read-out: Binding affinity with HLA-B5101. Here is the method: as §1

Another assay concerns the target HLA-B1302 (Homo sapiens, UniProt P01889, A65T/A93T/A95T/D138N/D201E/D98Y/E176V/E204Q/E69M/E70A/G107R/K202T/L105A/L119W/N104T/N87E/Q94N/R106L/R155S/R169L/R180L/S101N/S121T/S35A/S48T/V127L/V36M/Y140L/Y91S). In words: Competitive peptide binding assay, CIR-B1302. To be noted: HMy2.CIR-B1302 cells, reference Cy5-MMWYWGPSL, class from inhibition at 5 and 15 μM, flow cytometry MFI; read-out: Binding affinity with HLA-B1302. Here is the method:
as §1

The target of a further assay is HLA-B1501 (Homo sapiens, UniProt P01889, A329T/A93T/A95T/C349S/D201E/D98Y/E187L/E204Q/E69M/E70A/K202T/N87E/Q94N/R155S/R180W/S121R/S35A/S48A/V306I/V36M/Y140S/Y91S). Kind of assay: Competitive peptide binding assay, CIR-B1501. To be noted: HMy2.CIR-B1501 cells, reference Cy5-[…], class from inhibition at 5 and 15 μM, flow cytometry MFI; read-out: Binding affinity with HLA-B1501. Here is the method:
as §1

For another assay, the target named is HLA-B5201 (Homo sapiens, UniProt P01889, A329T/A93T/A95T/C349S/D138N/D201E/D98Y/E187L/E204Q/E69T/G107R/I218V/K202T/L105A/L119W/N104I/N87E/Q94N/R106L/R155S/R180L/S101N/S121T/S35A/S48A/V306I/V36M/Y195H/Y91S). Kind of assay: Competitive peptide binding assay, CIR-B5201. Conditions: HMy2.CIR-B5201 cells, reference Cy5-[…], class from inhibition at 5 and 15 μM, flow cytometry MFI; read-out: Binding affinity with HLA-B5201. Here is the method:
as §1

The target of another assay is HLA-B4801 (Homo sapiens, UniProt P01889, A269T/A93T/A95T/D138N/D98Y/E176V/N87E/Q94N/R180L/T167S/W171L/Y91S). In words: Competitive peptide binding assay, CIR-B4801. Conditions: HMy2.CIR-B4801 cells, reference Cy5-[…], class from inhibition at 5 and 15 μM, flow cytometry MFI; read-out: Binding affinity with HLA-B4801. Here is the method: as §1
The target of a further assay is T1, HLA-B0702 (Homo sapiens, UniProt P01889).
T1 construct: expressed in transfected cells; host or cells: HMy2.CIR
Kind of assay: Competitive peptide binding assay, CIR-B0702. To be noted: HMy2.CIR-B0702 cells, reference Cy5-[…], class from inhibition at 5 and 15 μM, flow cytometry MFI. Here is the method: as §1

With `CC[C@H](C)[C@H](NC(=O)CNC(=O)[C@H](CC(=O)O)NC(=O)[C@H](CCCCN)NC(=O)[C@H](CC(N)=O)NC(=O)[C@H](C)NC(=O)CN)C(=O)N[C@H](C(=O)N[C@@H](Cc1c[nH]c2ccccc12)C(=O)O)[C@@H](C)CC` [Epitope Y301] (H-GANKDGIIW-OH; N-terminus and C-terminus assumed), the IC50 on HLA-B4601 was 5 to 15 µM; at HLA-B5801 it was under 5 µM; at HLA-B1502, over 15 µM; at HLA-B5101 it was over 15 µM; at HLA-B1302 it was over 15 µM; at HLA-B1501, over 15 µM. Also, the IC50 on HLA-B5201 is over 15 µM; at HLA-B4801, over 15 µM; on HLA-B0702 it was 5 to 15 µM.

`CC(C)C[C@H](NC(=O)[C@H](CCC(N)=O)NC(=O)[C@H](CC(=O)O)NC(=O)[C@H](C)NC(=O)[C@@H](N)Cc1c[nH]cn1)C(=O)N[C@H](C(=O)N1CCC[C@H]1C(=O)N[C@H](C(=O)N[C@@H](Cc1c[nH]c2ccccc12)C(=O)O)[C@@H](C)O)[C@@H](C)O` [Epitope Y313] (H-HADQLTPTW-OH; N-terminus and C-terminus assumed): the IC50 at HLA-B5101 was over 15 µM; at HLA-B5201, 5 to 15 µM.
